Results: ChEMBL document CHEMBL3885861, “Open TG-GATES”

Species on record: Rattus norvegicus
Test: Open TG-GATES - Regimen: Daily Repeat
Type: toxicity, organism-based, Sprague-Dawley
Set-up: regimen Daily Repeat, gender Male, age 6 weeks
Conditions: in vivo, po, route gavage; for gamma-GTP / ALP / ALT / AST / BUN / CRE / Ca / Cl / DBIL / GLC / IP / K / LDH / Na / PL / RALB / TBIL / TC / TG / TP: tissue Plasma; for APTT / Bas / Eos / Fbg / Ht / Lym / MCH / MCHC / MCV / Mono / Neu / PT / Plat / RBC / Ret / WBC: tissue Blood; for KIDNEY_L / KIDNEY_R / KIDNEY_TOTAL: tissue Kidney; for LIVER: tissue Liver
[1] = 100 mg/kg, 72 h, dose level High, time 3 day
[2] = 100 mg/kg, […], dose level High, time 7 day
[3] = 100 mg/kg, […], dose level High, time 14 day
[4] = 100 mg/kg, […], dose level High, time 28 day

Cc1cccc(Nc2cc(Cl)nc(SCC(=O)O)n2)c1C [PIRINIXIC ACID]
gamma-GTP (30 mg/kg, […], dose level Middle, time 28 day): 1.2 IU/L | TERMINAL_BW [1]: 236.1 g | APTT [1]: 16.4 s | Bas [1]: 0% | Eos [1]: 1% | Fbg [1]: 210.2 mg/dL | Ht [1]: 39.4% | Lym [1]: 73.4% | MCH [1]: 21.2 pg | MCHC [1]: 34% | MCV [1]: 62.5 fL | Mono [1]: 3% | Neu [1]: 22% | PT [1]: 12.2 s | Plat [1]: 112.9 x10_4/uL | RBC [1]: 630.2 x10_4/ul | Ret [1]: 5.7% | WBC [1]: 78.7 x10_2/uL | KIDNEY_L [1]: 1.1 g | KIDNEY_R [1]: 1.1 g | KIDNEY_TOTAL [1]: 2.1 g | LIVER [1]: 16.9 g | ALP [1]: 1976.4 IU/L | ALT [1]: 70.6 IU/L | AST [1]: 103.4 IU/L | BUN [1]: 15.8 mg/dL | CRE [1]: 0.2 mg/dL | Ca [1]: 10.8 mg/dL | Cl [1]: 105.2 meq/L | DBIL [1]: 0.022 mg/dL | GLC [1]: 192.2 mg/dL | IP [1]: 7.3 mg/dL | K [1]: 4.1 meq/L | LDH [1]: 189.6 IU/L | Na [1]: 144 meq/L | PL [1]: 116 mg/dL | RALB [1]: 2.7 g/dL | TBIL [1]: 0.028 mg/dL | TC [1]: 59 mg/dL | TG [1]: 34 mg/dL | TP [1]: 5.4 g/dL | gamma-GTP [1]: 1 IU/L | TERMINAL_BW [2]: 275.8 g | TERMINAL_BW [3]: 297.8 g | TERMINAL_BW [4]: 351.6 g | APTT [2]: 15.4 s | Bas [2]: 0% | Eos [2]: 0.8% | Fbg [2]: 225 mg/dL | Ht [2]: 36.2% | Lym [2]: 76.6% | MCH [2]: 21.4 pg | MCHC [2]: 34.3% | MCV [2]: 62.4 fL | Mono [2]: 3.2% | Neu [2]: 19% | PT [2]: 12.5 s | Plat [2]: 129.5 x10_4/uL | RBC [2]: 580.4 x10_4/ul | Ret [2]: 5.9% | WBC [2]: 116.4 x10_2/uL | APTT [3]: 17.3 s | Bas [3]: 0% | Eos [3]: 0.8% | Fbg [3]: 207 mg/dL | Ht [3]: 38.8% | Lym [3]: 75.4% | MCH [3]: 20.3 pg | MCHC [3]: 34.6% | MCV [3]: 58.7 fL | Mono [3]: 3.6% | Neu [3]: 19.4% | PT [3]: 12.9 s | Plat [3]: 121.9 x10_4/uL | RBC [3]: 661.2 x10_4/ul | Ret [3]: 4.3% | WBC [3]: 147.9 x10_2/uL | APTT [4]: 16.6 s | Bas [4]: 0% | Eos [4]: 1.2% | Fbg [4]: 216.6 mg/dL | Ht [4]: 39.4% | Lym [4]: 74.2% | MCH [4]: 18.8 pg | MCHC [4]: 35% | MCV [4]: 53.7 fL | Mono [4]: 4% | Neu [4]: 19.6% | PT [4]: 12.4 s | RBC [4]: 734.2 x10_4/ul | Ret [4]: 2.5% | WBC [4]: 118.8 x10_2/uL | KIDNEY_L [2]: 1.2 g | KIDNEY_R [2]: 1.2 g | KIDNEY_TOTAL [2]: 2.3 g | KIDNEY_L [3]: 1.3 g | KIDNEY_R [3]: 1.3 g | KIDNEY_TOTAL [3]: 2.6 g | KIDNEY_L [4]: 1.6 g | KIDNEY_R [4]: 1.6 g | KIDNEY_TOTAL [4]: 3.1 g | LIVER [2]: 24.1 g | LIVER [3]: 26.1 g | LIVER [4]: 30.8 g | ALP [2]: 1688.2 IU/L | ALT [2]: 46.4 IU/L | AST [2]: 66.4 IU/L | BUN [2]: 18.8 mg/dL | CRE [2]: 0.2 mg/dL | Ca [2]: 11.3 mg/dL | Cl [2]: 102.8 meq/L | DBIL [2]: 0.014 mg/dL | GLC [2]: 201.8 mg/dL | IP [2]: 7.4 mg/dL | K [2]: 4 meq/L | LDH [2]: 142 IU/L | Na [2]: 142 meq/L | PL [2]: 143 mg/dL | RALB [2]: 3 g/dL | TBIL [2]: 0.026 mg/dL | TC [2]: 69.4 mg/dL | TG [2]: 52 mg/dL | TP [2]: 6.1 g/dL | gamma-GTP [2]: 0.6 IU/L | ALP [3]: 1872.4 IU/L | ALT [3]: 49.6 IU/L | AST [3]: 75 IU/L | BUN [3]: 19.4 mg/dL | CRE [3]: 0.2 mg/dL | Ca [3]: 10.4 mg/dL | Cl [3]: 102.8 meq/L | DBIL [3]: 0.022 mg/dL | GLC [3]: 189.6 mg/dL | IP [3]: 7.1 mg/dL | K [3]: 3.8 meq/L | LDH [3]: 141 IU/L | Na [3]: 141.8 meq/L | PL [3]: 149.6 mg/dL | RALB [3]: 2.9 g/dL | TBIL [3]: 0.032 mg/dL | TC [3]: 74.8 mg/dL | TG [3]: 44.4 mg/dL | TP [3]: 6.1 g/dL | gamma-GTP [3]: 1.2 IU/L | ALP [4]: 1888.4 IU/L | ALT [4]: 41.8 IU/L | AST [4]: 65.8 IU/L | BUN [4]: 17.2 mg/dL | CRE [4]: 0.2 mg/dL | Ca [4]: 10.8 mg/dL | Cl [4]: 102.2 meq/L | DBIL [4]: 0.008 mg/dL | GLC [4]: 189.2 mg/dL | IP [4]: 7.6 mg/dL | K [4]: 3.7 meq/L | LDH [4]: 109 IU/L | Na [4]: 141.8 meq/L | PL [4]: 147.4 mg/dL | RALB [4]: 3 g/dL | TBIL [4]: 0.048 mg/dL | TC [4]: 80 mg/dL | TG [4]: 43.6 mg/dL | TP [4]: 6.6 g/dL | gamma-GTP [4]: 1 IU/L
